Eight molecules from ChEMBL document CHEMBL1201862, “PubChem BioAssay data set” (2004) can be followed below.

Test systems include NCI/ADR-RES; PC-3; EKVX; IGROV-1; MOLT-4; A549; SK-OV-3; NCI-H460; T47D; CAKI-1; UACC-257; A498; M14; COLO 205; MCF7; MDA-MB-231; CCRF-CEM; SW-620.
Test in all cases: DTP human tumour cell line panel, 48 h

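Interpolation was linear, between the two tested concentrations surrounding the appropriate level; five concentrations were tested over 48 hours in 96-well plates. GI50 marks 50% less growth.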 Active and inactive are the calls of the source. No stated cut-off is given here; in the data, active = GI50 up to about 1.1 µM and inactive = higher.

In general, GI50 refers to the concentration giving 50% growth inhibition. Take `CCc1nc2cc3cccnc3c(Cl)c2[nH]c1=O`: the GI50 with NCI/ADR-RES was 79.1 µM (inactive); in the experiment with PC-3, > 100 µM (inactive); with EKVX, > 100 µM (inactive); with IGROV-1 it was 71 µM (inactive); with MOLT-4, > 100 µM (inactive); in the experiment with A549, > 100 µM (inactive). Also, the GI50 in the experiment with SK-OV-3 was 95.9 µM (inactive); with NCI-H460 it was > 100 µM (inactive); with T47D it was 63.4 µM (inactive); in the experiment on CAKI-1, 75.7 µM (inactive); with UACC-257, > 100 µM (inactive); in the experiment on A498 it was > 100 µM (inactive). Further, the GI50 was > 100 µM (inactive) in the experiment on M14; > 100 µM (inactive) in the experiment with COLO 205; 5.86 µM (inactive) in the experiment with MCF7; > 100 µM (inactive) with MDA-MB-231; > 100 µM (inactive) in the experiment with CCRF-CEM; > 100 µM (inactive) in the experiment on SW-620.
With `O=C1c2ccccc2CC12Cc1cc3c(cc1C2)CCC3`, the GI50 is 44 µM (inactive) in the experiment on NCI/ADR-RES; 39.8 µM (inactive) in the experiment with PC-3; 99.3 µM (inactive) with EKVX; 87.3 µM (inactive) in the experiment on IGROV-1; 22.6 µM (inactive) with MOLT-4; > 100 µM (inactive) with A549. Also, the GI50 with SK-OV-3 was > 100 µM (inactive); in the experiment with NCI-H460, 39.9 µM (inactive); in the experiment on T47D it was > 100 µM (inactive); in the experiment with CAKI-1, > 100 µM (inactive); with UACC-257, 31.9 µM (inactive); in the experiment with A498 it was 84.1 µM (inactive). For the same molecule, the GI50 with M14 was 19.5 µM (inactive); with COLO 205, 31.3 µM (inactive); in the experiment with MCF7, 34.5 µM (inactive); in the experiment with MDA-MB-231 it was > 100 µM (inactive); in the experiment on CCRF-CEM, 55.3 µM (inactive); in the experiment on SW-620, 78.2 µM (inactive).
For the molecule `COC(O)C(=O)c1c2c(cc3c1CCC3)CCCC2` (centres undefined), the GI50 was 14.7 µM (inactive) with NCI/ADR-RES; 4.32 µM (inactive) in the experiment on PC-3; 16.7 µM (inactive) in the experiment on EKVX; 4.12 µM (inactive) with IGROV-1; 3.38 µM (inactive) in the experiment with MOLT-4; 18.6 µM (inactive) in the experiment on A549. Also, the GI50 with SK-OV-3 is 12 µM (inactive); in the experiment with NCI-H460, 7.5 µM (inactive); in the experiment with T47D it was 6.28 µM (inactive); with CAKI-1 it was 14.7 µM (inactive); in the experiment with UACC-257, 12.6 µM (inactive); in the experiment on A498 it was 13.5 µM (inactive). In addition, the GI50 is 10.2 µM (inactive) in the experiment with M14; 6.62 µM (inactive) in the experiment on COLO 205; 5.27 µM (inactive) with MCF7; 9.64 µM (inactive) with MDA-MB-231; 2.39 µM (inactive) with CCRF-CEM; 3.44 µM (inactive) in the experiment on SW-620.
As to `Cc1ccc(CN2CCN(Cc3ccc(C)o3)C(C)C2)o1` (centres undefined), the GI50 in the experiment with NCI/ADR-RES, in the experiment with PC-3, in the experiment on EKVX, in the experiment on IGROV-1, with MOLT-4 and in the experiment with A549 was > 100 µM (inactive) each time. The GI50 in the experiment on SK-OV-3, with NCI-H460, in the experiment with T47D, in the experiment on CAKI-1, in the experiment on UACC-257 and with A498 was > 100 µM (inactive) each time. Moreover, the GI50 in the experiment on M14, with COLO 205, in the experiment on MCF7, with MDA-MB-231, with CCRF-CEM and with SW-620 was > 100 µM (inactive) each time.
Consider `Cn1c(CO)ccc1-c1ccc(-c2ccc(CO)[se]2)[se]1`, for which the GI50 with NCI/ADR-RES is 33.9 µM (inactive); in the experiment with PC-3, 18.2 µM (inactive); in the experiment with EKVX, 48.1 µM (inactive); with IGROV-1, 0.0621 µM (active); in the experiment with MOLT-4, 3.76 µM (inactive); in the experiment with A549, 15.4 µM (inactive). Besides, the GI50 was > 50.4 µM (inactive) in the experiment on SK-OV-3; 18.4 µM (inactive) in the experiment on NCI-H460; 11.9 µM (inactive) with T47D; 0.0176 µM (active) in the experiment on CAKI-1; 0.192 µM (active) in the experiment with UACC-257; 0.023 µM (active) in the experiment with A498. Also, the GI50 in the experiment with M14 is 10.4 µM (inactive); in the experiment on COLO 205, 1.77 µM (inactive); in the experiment with MCF7, 0.251 µM (active); with MDA-MB-231 it was 21.2 µM (inactive); in the experiment on CCRF-CEM, 1.8 µM (inactive); with SW-620, 1.58 µM (inactive).
Regarding `COc1cc2c(cc1OCCCC(=O)Nc1cc(C(=O)Nc3cc(C(=O)Nc4cc(C(=O)NCCCN(C)C)n(C)n4)n(C)c3)n(C)c1)N=CC1CCCN1C2=O` (centres undefined), the GI50 is 39.8 µM (inactive) in the experiment with NCI/ADR-RES; 23.6 µM (inactive) in the experiment on PC-3; 74 µM (inactive) with EKVX; 6.38 µM (inactive) in the experiment with IGROV-1; 4.01 µM (inactive) in the experiment with MOLT-4; 49.3 µM (inactive) with A549. Also, the GI50 with SK-OV-3 was 40.6 µM (inactive); with NCI-H460, 25.9 µM (inactive); in the experiment with T47D it was 48.5 µM (inactive); with CAKI-1, 25.1 µM (inactive); with UACC-257, 19.7 µM (inactive); in the experiment with A498, 29.2 µM (inactive). Moreover, the GI50 was 24.3 µM (inactive) in the experiment with M14; 21.2 µM (inactive) in the experiment with COLO 205; 16.8 µM (inactive) in the experiment with MCF7; 34.5 µM (inactive) with MDA-MB-231; 4.31 µM (inactive) with CCRF-CEM; 20.6 µM (inactive) in the experiment with SW-620.
As to `O=C1c2cccnc2-c2nccc3c2c1nc1ccccc13` [ASCIDIDEMIN], the GI50 in the experiment with NCI/ADR-RES is 0.0551 µM (active); with PC-3, 0.188 µM (active); in the experiment with EKVX, 0.912 µM (active); with IGROV-1, 0.31 µM (active); in the experiment on MOLT-4, 0.692 µM (active); in the experiment on A549, 0.255 µM (active). The GI50 in the experiment with SK-OV-3 was 0.272 µM (active); in the experiment on NCI-H460, 0.0879 µM (active); in the experiment with T47D it was 0.29 µM (active); in the experiment with CAKI-1, 0.215 µM (active); in the experiment on UACC-257 it was 0.321 µM (active); with A498 it was 0.27 µM (active). Besides, the GI50 is 0.0466 µM (active) in the experiment with M14; 1.99 µM (inactive) in the experiment on COLO 205; 0.0708 µM (active) in the experiment with MCF7; 0.188 µM (active) in the experiment with MDA-MB-231; 0.501 µM (active) in the experiment on CCRF-CEM; 0.0705 µM (active) with SW-620.
As to `CC1CC(C)(O)CC(C(O)CC2CC(=O)NC(=O)C2)C1=O` (centres undefined) [RESACTIN A], the GI50 with NCI/ADR-RES was 0.232 µM (active); with PC-3, 0.0465 µM (active); in the experiment on EKVX it was 0.0505 µM (active); in the experiment on IGROV-1, 0.0292 µM (active); in the experiment with MOLT-4 it was 0.0151 µM (active); in the experiment on A549 it was 0.0513 µM (active). The GI50 in the experiment on SK-OV-3 is 0.0818 µM (active); in the experiment with NCI-H460 it was 0.0385 µM (active); with T47D, 0.0431 µM (active); in the experiment on CAKI-1, < 0.01 µM (active); with UACC-257, 0.0541 µM (active); in the experiment on A498 it was 0.067 µM (active). For the same molecule, the GI50 with M14 is 0.034 µM (active); with COLO 205 it was 0.0381 µM (active); in the experiment with MCF7, 0.0379 µM (active); in the experiment with MDA-MB-231 it was < 0.01 µM (active); in the experiment on CCRF-CEM, < 0.014 µM (active); in the experiment with SW-620 it was 0.0294 µM (active).
